Measured values from a melting point compilation (Tetko et al.; mined from patent text by program, amines drawn as free bases though some values may be those of a salt).

Structure (SMILES)	melting point [°C]
O=S(=O)(C(/C=C/c1ccc(Br)cc1)c1c(F)c(F)c(F)c(F)c1F)C(/C=C/c1ccc(Br)cc1)c1c(F)c(F)c(F)c(F)c1F (centres undefined)	176 to 177
C=CCOc1ccc2cc(O)ccc2c1	92 to 93
COCC(=O)c1ccc(Br)nc1	110 to 112
C=CCOc1ccc(F)cc1-c1ccccc1-c1ccccc1	48 to 49
CC1(C)NC(=O)N(c2ccc(Oc3ccccc3)cc2)C1=O	165
Cc1ccc(S(=O)(=O)n2c3cccc(CCl)c3c3c(C)ccc(C)c32)cc1	149
O=[N+]([O-])c1cc(F)ccc1OCCCCl	143
CNC(=C[N+](=O)[O-])NCCCCCCCCCCCCNC(=C[N+](=O)[O-])NCCSCc1ccc(CN(C)C)o1	78 to 80
CCCN(CCCCN1CCN(c2ccccc2)CC1)C1CCc2nc(N)sc2C1 (centres undefined)	156
N=C(N)c1ccc(N2CCC(N3CCN(CCC(=O)O)C3=O)CC2)cc1	> 275
O=C(c1ccc(N2CCCC2)cc1)C1CCN(Cc2ccccc2)CC1	154 to 156
Cc1c(Br)c(O)c(Br)c(C)c1-c1c(C)c(Br)c(O)c(Br)c1C	242 to 245
Cc1noc(NS(=O)(=O)c2cc(Br)c(Cl)s2)c1Br	143 to 145
C[C@H]1[C@@H](O)C(C)(C)C(=O)N1c1ccc(C#N)c(C(F)(F)F)c1	120 to 121
N#Cc1ccccc1-c1ccc2[nH]ncc2c1	163 to 170
CC(C)(C)C(=O)C(=Cc1ccc(Cl)cc1)n1cncn1	82
CCCCCCCCCCCCCCCCOc1cccc(O)c1C	53 to 54
O=C(Nc1ccc2ccc(Cl)nc2n1)c1c(F)cccc1F	242
CCCCCCCCCCCCCCOc1ccc(C(=O)Nc2ccc(CO)cc2)cc1	140 to 145

Structure (SMILES)	melting point [°C]
O=C(O)COc1ccc2c(c1)Cc1sc(S(=O)(=O)CCC(c3ccccc3)c3ccccc3)nc1-2	172 to 174
C=CCn1c(=O)[nH]c(=O)n(-c2ccccc2)c1=O	63 to 65
CC(C)[Si](Oc1ccc2c(c1)OCC(N1CCC(O)(c3ccccc3)CC1)C2=O)(C(C)C)C(C)C (centres undefined)	132
c1ccc2c(c1)cc1n2CC2(CC1)CO2 (centres undefined)	104 to 107
Cc1cc(O)ccc1-c1cc2cc(O)ccc2o1	167 to 169
C=CCOc1cc([N+](=O)[O-])ccc1[N+](=O)[O-]	66.5 to 68
O=c1[nH]c2cc(Cl)cc(Cl)c2c(-c2cc(Cl)ccc2O)c1O	297 to 299
COC(=O)C12Cc3cc(Cl)ccc3C1=NNCO2 (centres undefined)	124 to 127
N#Cc1[nH]ccc1-c1ccccc1Cl	114 to 115
CCN1CCc2ccc(C(=O)CCC(=O)N3CCC(c4ccc(Cl)cc4)CC3)cc2CC1	156 to 157
N#Cc1c(N2CCCCC2)cc(-c2cccc3ccccc23)c2c1-c1ccccc1C2	188 to 190
Cn1ncc(C(=O)N2CCC2)c1C(=O)Nc1ccc2nc(-c3ccccc3)nn2c1	235 to 236
Nc1ncc(Cl)nc1Cl	117 to 118
CC1(C)OCC[C@@H]2[C@@H](NC(=O)OCc3ccccc3)C(=O)N21 (relative stereo)	129 to 131
Cc1nnc2n1-c1ccccc1C(c1ccc(Cl)cc1)=NN2Cc1ccc(NC=O)cc1	215 to 216
Cn1cc(-c2ccccc2)c(=O)c(-c2cc(Br)ccc2F)c1	148 to 150
CCn1c2ccccc2c(=NN=C2NCCS2)c2ccccc21	187 to 188
CN1C(N2CCCCC2)=C2N=c3cc(Cl)ccc3=C2Oc2ccccc21	244 to 245

Now from value to compound:

melting point [°C]	Structure (SMILES)
194 to 196	CONC(=N)c1ccc(-c2ccc(-c3ccc(C(=N)NOC)o3)cc2)cc1
123 to 127	COc1ccccc1[C@H](c1cccc2ccccc12)[C@@](C)(C#N)C(=O)N1CCC(c2cccc(C(F)(F)F)c2)CC1
165 to 167	CNC(=S)NCCCSc1cncc(NC(N)=NCC(F)(F)F)n1
125 to 127	CCCCCc1c(C(C)O)nc(C(C)C)c(CO)c1-c1ccc(F)cc1 (centres undefined)
184 to 186	CCC(=O)NC1Cc2cccc3ccc(OC)c(c23)C1 (centres undefined)
173 to 175	CC(C)c1ccc(OC(C)(Cc2ccc(OCCNC(=O)c3ccc(OCC(F)(F)C(F)F)nc3)cc2)C(=O)O)cc1 (centres undefined)
> 260	CCn1c(N)c(C(N)=O)c(=O)c2cnc(Nc3ccc(O)cc3)nc21
122	CCOC(=O)N1CCC(n2c(=O)n(C)c3cc(Cl)ccc32)CC1
159 to 161	CCN(CC)c1nc(-c2ccc(OC)c(OC)c2)nc2sc(C#N)c(C)c12
154 to 157	Cc1cc(C)cc(C(=O)c2c(-c3ccc(OCC(O)CNC(C)C)cc3)oc3ccccc23)c1 (centres undefined)
97 to 100	CCc1cc(Oc2ccc([N+](=O)[O-])cc2C(F)(F)F)nn1C(=O)NC
96 to 97	Cc1csc(N2CCN(Cc3ccc(C(=O)n4nccc4C)cc3)C2=O)n1
> 250	O=C(NS(=O)(=O)c1cc(C(F)(F)F)ccc1Cl)c1cn2cc(Br)cnc2n1
217 to 220	COc1ccc(C(=O)Nc2nc3ccc([N+](=O)[O-])cc3c(NCc3cccs3)c2C#N)cc1
59 to 61	CCOC(=O)c1c(C(F)(F)F)nc(C(F)F)c(C(=O)OC)c1OCC
195 to 197	CCOC(=O)c1cc(CBr)ccc1S(=O)(=O)NC(=O)Nc1nc(OC)cc(OC)n1

melting point [°C]	Structure (SMILES)
123 to 127	CCc1nc2c(cnn2CC)c(NC2CCOCC2)c1CNC(=O)c1cccc(C(=O)NCc2cc(Cl)cc(-c3cccc(C=O)c3)c2)c1
99	COc1ccc2cccc(C(=O)C(=O)O)c2c1
165 to 166	CCCc1nc(NS(=O)(=O)c2ccc(C(C)(C)C)cc2)c(-c2ccc(C)cc2)c(OCCOc2ncc(-c3cccs3)cn2)n1
185 to 187	N#Cc1cnn(-c2c(Cl)cc(SC(F)(F)F)cc2Cl)c1N
38 to 39	OCCCCOc1nc(F)c(Cl)cc1Cl
125 to 126	COC(=O)C(C)(C)Cc1cc2ccc(O)cc2n1C
200	CCCC(=O)Nc1n[nH]c2cc(-c3ccncc3)ccc12
158 to 160	Cc1ccc(NC(=O)N2CCC(=C(F)c3cccc(Oc4ccc(C(F)(F)F)cn4)c3)CC2)cn1
169 to 170	CCc1cc(C#N)cc2c(NCc3ccc(OC)c(Cl)c3)c(C(=O)Oc3c(F)c(F)c(F)c(F)c3F)cnc12
145 to 150	Nc1nc2ccccc2c2c1nc(-c1ccccc1)n2CCCCNC(=O)Nc1ccc(F)cc1
96 to 98	CCCc1c(OCCCOc2ccc3c(c2)CCC(CC(=O)OC)C3=O)ccc(C(C)=O)c1O (centres undefined)
156 to 159	CC(C)C(N)CCCCCCCCC(C)(C)C(=O)O (centres undefined)
228 to 230	COC(=O)CC(=O)Nc1ccc(C2=NNC(=O)CC2C)cc1 (centres undefined)
204 to 206	CC(=O)NC(=Cc1c[nH]c2cc(C)ccc12)C(=O)O
192 to 193	CCN(C)C1CCCN(C(=O)c2ccc(NC(=O)c3ccccc3C)cc2)c2ccccc21 (centres undefined)
202 to 203	CNC(=O)c1ccccc1Nc1nc(Nc2ccc3c(c2)CCC(NCC(F)(F)F)CC3)ncc1Cl (centres undefined)
